According to patent publication US20230117328A1, “METHODS TO TREAT CANCER USING (R)-N-(3-FLUORO-4-((3-((1-HYDROXYPROPAN-2-YL)AMINO)-1H-PYRAZOLO[3,4-B]PYRIDIN-4-YL)OXY)PHENYL)-3-(4-FLUOROPHENYL)-1-ISOPROPYL-2,4-DIOXO-1,2,3,4-TETRAHYDROPYRIMIDINE-5-CARBOXAMIDE” (Array BioPharma Inc., priority 2020, published 2023):
Entries after “also recorded” stand apart in the source; their conditions may differ.

Assays:
[1] = Tolerability (body weight loss, deaths) in tumor-naive cohorts; format: in vivo; conditions: tumor-naive mice
Method: Anti-PD-1 was administered twice weekly (BIW) for 2 consecutive weeks by intraperitoneal (IP) injection at 200 μg/mouse. […] Concomitantly, a set of satellite cohorts comprising tumor-naïve mice was treated with the same schedules and doses as indicated above. […]

[2] = tested on: C57BL/6 mice; assay: Ocular histopathology (retina) in mice at terminal (Day 38) and recovery (Day 66) necropsy; format: in vivo; conditions: for animals affected by swelling of rod and cone processes (incidence and grade): terminal necropsy
Method: Eyes were harvested for histopathology assessment from the tumor-naïve groups as the terminal necropsy cohort on Day 38, the last day the 28-day dosing period. Since not all terminal necropsy groups were dosed for the entirety of the 28-day dosing period, some groups effectively experienced a 1-3 week recovery period. Eyes were harvested for histopathology assessment from the tumor-bearing groups as the recovery necropsy cohort on Day 66, the last day of the 28-day recovery period. Since not all recovery necropsy groups were dosed for the entirety of the 28-day dosing period, some of these groups effectively experienced an extended recovery period beyond the 28-day recovery period of an additional 1-3 weeks. […] This finding was only visualized under epifluorescent illumination and was characterized by scattered individual processes that were increased in diameter up to five times the surrounding processes, with increased autofluorescence. […] It remained unclear whether these findings were adverse, as no degenerative changes were observed. If the material affected vision, it would be considered adverse; however, as this study was not designed to test for alterations in vision, adversity could not be determined.
Terminal necropsy from non-tumor-bearing cohorts occurred at 28 days from the start of dosing, and eyes from 4-5 animals in each group were harvested for histopathology assessment. Since not all terminal necropsy groups were dosed for the entirety of the 28-day dosing period, some groups effectively experienced a 1-3 week recovery period. Recovery sacrifice from tumor-bearing cohorts occurred at 28 days after the 28-day dosing period, and eyes from 5 animals in each group were harvested for histopathology assessment. Since not all recovery necropsy groups were dosed for the entirety of the 28-day dosing period, some groups effectively experienced an extended recovery period beyond the 28-day recovery period of 1-3 weeks. Briefly, animals were euthanized by CO2 inhalation and eyes were harvested with forceps and placed in 1.5 mL modified Davidson's Fixative (Electron Microscopy Science, Cat. No. 64133-50, lot no. 190621-08) for up to 24 hours at room temperature. Tissues were then transferred to 1.5 ml 10% neutral buffered formalin (Thermo Scientific, cat. no. 9400-5, lot no. 435456) at room temperature. Fixed tissues were submitted Vet Path Services, Inc. (Mason, Ohio) for histological processing and microscopic evaluation.
Provantis™ pathology software v 10.1.0.1 was utilized for data capture and table generation. Histopathology grades were assigned as grade 1 (minimal), grade 2 (mild), grade 3 (moderate), grade 4 (marked), or grade 5 (severe) based on an increasing extent of change, unless otherwise specified. H&E stained slides were evaluated with standard light microscopy and epifluorescence (450-490 nm excitation).

[3] = tested on: Sprague Dawley rats; assay: 28-day repeat dose oral toxicity and toxicokinetic study with 28-day recovery period; format: in vivo
[4] = target: CYP2D6 (Homo sapiens, UniProt P10635); assay: In vitro metabolism by CYP2D6; format: in vitro ADME
[5] = target: T1, P-gp (Homo sapiens, UniProt P08183); assay: P-gp substrate assessment in vitro; format: in vitro ADME
[6] = target: T2, BCRP (Homo sapiens, UniProt Q9UNQ0); assay: BCRP substrate assessment in vitro; format: in vitro ADME
T2 sequence (Q9UNQ0 1-655): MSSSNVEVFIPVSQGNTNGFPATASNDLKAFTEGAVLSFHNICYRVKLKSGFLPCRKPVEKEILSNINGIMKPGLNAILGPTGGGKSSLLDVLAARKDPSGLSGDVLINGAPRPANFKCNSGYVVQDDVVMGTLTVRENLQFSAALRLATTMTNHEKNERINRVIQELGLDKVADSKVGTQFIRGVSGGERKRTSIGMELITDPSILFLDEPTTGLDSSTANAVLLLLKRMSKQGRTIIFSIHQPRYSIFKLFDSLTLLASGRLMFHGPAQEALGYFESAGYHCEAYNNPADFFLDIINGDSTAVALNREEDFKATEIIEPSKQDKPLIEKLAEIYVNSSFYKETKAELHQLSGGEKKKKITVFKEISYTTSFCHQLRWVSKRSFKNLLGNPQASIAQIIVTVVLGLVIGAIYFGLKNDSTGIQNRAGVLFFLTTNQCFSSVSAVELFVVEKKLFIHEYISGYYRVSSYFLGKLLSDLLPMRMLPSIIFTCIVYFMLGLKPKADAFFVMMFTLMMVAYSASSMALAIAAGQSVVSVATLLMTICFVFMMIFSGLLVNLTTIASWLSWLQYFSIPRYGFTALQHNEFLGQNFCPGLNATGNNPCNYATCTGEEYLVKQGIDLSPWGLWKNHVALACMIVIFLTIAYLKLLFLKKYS

[7] = target: T1, P-gp; assay: P-gp inhibition; format: in vitro ADME
[8] = tested on: syngeneic tumor; assay: Re-challenge of cured tumor-bearing mice with the same syngeneic tumor; format: in vivo; conditions: tumor-bearing mice cured following treatment with Compound 1
[9] = tested on: female Sprague Dawley rats; conditions: female, Sprague Dawley, rat, in vivo
[10] = in vivo; conditions: female, rat
[11] = Compound 1 50 mg/kg PO BID Days 10-16/24-30 in combination with anti-PD-1 200 μg IP BIW
[12] = Compound 1 50 mg/kg PO BID Days 10-16 in combination with anti-PD-1 200 μg IP BIW
[13] = Compound 1 50 mg/kg PO BID Days 10-23 in combination with anti-PD-1 200 μg IP BIW
[14] = Compound 1 50 mg/kg PO BID Days 10-30 in combination with anti-PD-1 200 μg IP BIW
[15] = Compound 1 50 mg/kg PO BID Days 10-37 in combination with anti-PD-1 200 μg IP BIW
[16] = Compound 1 monotherapy, 50 mg/kg PO BID Days 10-37
[17] = oral QD 28 days at 30, 100 or 300/200 mg/kg

T1 sequence (P08183 whole entry): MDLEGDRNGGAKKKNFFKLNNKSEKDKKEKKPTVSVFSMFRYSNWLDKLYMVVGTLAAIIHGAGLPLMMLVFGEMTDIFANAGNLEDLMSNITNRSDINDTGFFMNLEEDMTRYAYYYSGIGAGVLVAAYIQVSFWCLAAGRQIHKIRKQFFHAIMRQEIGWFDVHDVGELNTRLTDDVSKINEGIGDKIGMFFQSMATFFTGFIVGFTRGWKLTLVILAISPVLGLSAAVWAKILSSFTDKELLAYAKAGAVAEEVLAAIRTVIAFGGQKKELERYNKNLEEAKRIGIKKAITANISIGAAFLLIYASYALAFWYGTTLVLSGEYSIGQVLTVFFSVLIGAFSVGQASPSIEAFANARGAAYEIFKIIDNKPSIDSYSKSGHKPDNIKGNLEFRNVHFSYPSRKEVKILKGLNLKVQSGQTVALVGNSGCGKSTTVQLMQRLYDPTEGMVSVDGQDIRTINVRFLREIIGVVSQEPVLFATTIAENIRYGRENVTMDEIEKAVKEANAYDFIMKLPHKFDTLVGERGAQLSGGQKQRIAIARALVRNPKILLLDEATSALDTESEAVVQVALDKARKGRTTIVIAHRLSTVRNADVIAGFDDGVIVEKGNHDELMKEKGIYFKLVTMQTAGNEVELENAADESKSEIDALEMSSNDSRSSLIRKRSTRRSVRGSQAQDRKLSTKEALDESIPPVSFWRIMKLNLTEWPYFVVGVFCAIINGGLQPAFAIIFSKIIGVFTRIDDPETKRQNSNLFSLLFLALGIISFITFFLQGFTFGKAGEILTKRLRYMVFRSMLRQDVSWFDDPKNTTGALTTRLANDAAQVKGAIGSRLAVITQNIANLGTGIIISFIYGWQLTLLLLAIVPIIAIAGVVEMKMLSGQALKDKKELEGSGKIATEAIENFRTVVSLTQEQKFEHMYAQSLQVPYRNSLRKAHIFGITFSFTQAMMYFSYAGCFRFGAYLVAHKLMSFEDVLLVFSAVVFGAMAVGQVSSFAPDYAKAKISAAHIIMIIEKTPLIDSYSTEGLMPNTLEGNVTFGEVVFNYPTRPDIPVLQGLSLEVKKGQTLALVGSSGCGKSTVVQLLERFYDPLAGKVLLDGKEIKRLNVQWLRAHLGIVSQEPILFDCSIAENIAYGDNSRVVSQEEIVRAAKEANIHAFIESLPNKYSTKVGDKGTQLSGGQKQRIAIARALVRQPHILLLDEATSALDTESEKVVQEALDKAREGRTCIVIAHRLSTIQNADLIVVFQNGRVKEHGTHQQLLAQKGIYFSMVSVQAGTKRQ
Chain of CYP2D6 (P10635 whole entry): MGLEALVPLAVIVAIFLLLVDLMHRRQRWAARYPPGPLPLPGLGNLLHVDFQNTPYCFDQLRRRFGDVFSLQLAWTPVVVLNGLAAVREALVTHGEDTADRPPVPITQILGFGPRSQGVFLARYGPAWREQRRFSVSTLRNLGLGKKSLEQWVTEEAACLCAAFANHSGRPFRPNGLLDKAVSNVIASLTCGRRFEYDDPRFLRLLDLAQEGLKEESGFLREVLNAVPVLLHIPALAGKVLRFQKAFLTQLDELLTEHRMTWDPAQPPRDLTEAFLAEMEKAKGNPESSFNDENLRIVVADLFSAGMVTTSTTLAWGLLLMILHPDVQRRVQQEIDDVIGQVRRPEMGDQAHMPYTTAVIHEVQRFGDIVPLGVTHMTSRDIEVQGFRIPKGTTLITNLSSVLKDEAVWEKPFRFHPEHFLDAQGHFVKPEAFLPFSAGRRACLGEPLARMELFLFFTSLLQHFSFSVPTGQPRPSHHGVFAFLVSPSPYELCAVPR

SMILES: CC(C)n1cc(C(=O)Nc2ccc(Oc3ccnc4[nH]nc(N[C@H](C)CO)c34)c(F)c2)c(=O)n(-c2ccc(F)cc2)c1=O [Compound 1, (R)—N-(3-fluoro-4-((3-((1-hydroxypropan-2-yl)amino)-1H-pyrazolo[3,4-b]pyridin-4-yl)oxy)phenyl)-3-(4-fluorophenyl)-1-isopropyl-2,4-dioxo-1,2,3,4-tetrahydropyrimidine-5-carboxamide]
- Deaths (any cause) [1, 11]: 0/5
- Maximum % Body Weight Loss [1, 11]: 0.00%
- Deaths (any cause) [1, 12]: 0/5
- Maximum % Body Weight Loss [1, 12]: 0.00%
- Deaths (any cause) [1, 13]: 1/5
- Maximum % Body Weight Loss [1, 13]: 0.00%
- Deaths (any cause) [1, 14]: 1/5
- Maximum % Body Weight Loss [1, 14]: 0.00%
- Deaths (any cause) [1, 15]: 0/5
- Maximum % Body Weight Loss [1, 15]: 0.00%
- Deaths (any cause) [1, 16]: 0/5
- Maximum % Body Weight Loss [1, 16]: 0.00%
- abnormal ocular observation at recovery sacrifice (unlikely to be related to the test article) ([2]; Day 66, Compound 1 for four weeks in combination with anti-PD-1): unilateral focal atrophy of the outer nuclear layer in Animal 4
- recovery period within which Compound 1-related microscopic retinal changes may be resolved ([2]; mice, histopathology assessment of the retinas): 1-4 week
- animals affected by swelling of rod and cone processes (incidence and grade) ([2]; Compound 1 for four weeks as monotherapy): three animals were minimally affected and two animals were mildly affected
- animals affected by swelling of rod and cone processes (incidence and grade) ([2]; Compound 1 for four weeks in combination with anti-PD-1): four of five animals were minimally affected
- test article-related ocular changes at recovery sacrifice ([2]; tumor-bearing mice, Day 66, 28 days after the 28-day dosing period): no definitively Compound 1-related changes were observed; also recorded: no definitively test article-related changes were observed
- test article-related microscopic changes in retina at terminal necropsy ([2]; tumor-naive mice, Day 38, Compound 1 50 mg/kg BID for 28 days (four weeks), as monotherapy or in combination with anti-PD-1, seen only under epifluorescent illumination, 50 mg/kg): multifocal swelling of the rod and cone processes in the retina; also recorded: multifocal swelling of the Rod and Cone processes in retina
- adversity of changes in the eyes and testes ([3]; oral QD 28 days): considered to be adverse
- dose with structural/functional changes in the eyes (outer retinal atrophy), female [3, 17]: 30 mg/kg
- dose with structural/functional changes in the eyes (outer retinal atrophy), males [3, 17]: 100 mg/kg
- reversibility of outer retinal atrophy ([3]; oral QD 28 days, 28-day recovery period): unrecoverable
- metabolizing enzyme in vitro [4]: primarily metabolized by CYP3A4 and CYP2D6
- P-gp substrate status [5]: substrate of P-gp and BCRP
- BCRP substrate status [6]: substrate of P-gp and BCRP
- P-gp inhibitor status [7]: inhibitor of P-gp
- response of cured mice to subsequent re-challenge with the same syngeneic tumor [8]: resistant to subsequent re-challenge with the same syngeneic tumor
- therapeutic multiples compared to expected exposure at the starting dose of 25 mg QD [9]: 39-78
- STD10 for 14 days once daily dose administration ([9]; 14 days): 100 mg/kg
- NOAEL at 7 days [10]: 200 mg/kg
